Source: patent US5160526A, “Alkene stabilizers for 3-isothiazolone compounds” (priority 1991, dated 1992)

Assay type: physicochemical
Settings: 2-propanol/water systems

Row | Structure (SMILES) | stabilizing properties (in words)
1 | C1=CC2C3C=CC(C3)C2C1 (centres unmarked) [dicylopentadiene] | failed to show any stabilizing properties
2 | C1=Cc2ccccc2C1 [indene] | failed to show any stabilizing properties
